# Assay results reported in US9695155B2, “Herbicidal substituted pyrimidinyloxy benzene compounds” (E. I. DU PONT DE NEMOURS AND COMPANY, priority 2013, dated 2017).
# Tests used:
# [1] = system: barnyardgrass; assay: Test A preemergence; assay type: in vivo, Echinochloa crus-galli; details: Echinochloa crus-galli, pre-emergence, 240 h, 0 to 100 scale where 0 is no effect and 100 is complete control
# Procedure, shortened: (§1)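 Pre- and postemergence greenhouse screen. Soil: loam + sand. Spray carrier: solvent mixture, non-phytotoxic, with surfactant. Post timing at 1–2 leaves, height 2–10 cm. Readout: visual injury on a 0–100 scale roughly 10 days after application, untreated plants as reference.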
# [2] = system: barnyardgrass; assay: Test A postemergence; assay type: in vivo, Echinochloa crus-galli; details: Echinochloa crus-galli, post-emergence, 240 h, 0 to 100 scale where 0 is no effect and 100 is complete control
# Procedure, shortened: as §1
# [3] = system: pigweed; assay: Test A postemergence; assay type: in vivo, Amaranthus retroflexus; details: Amaranthus retroflexus, post-emergence, 0 to 100 scale where 0 is no effect and 100 is complete control
# Procedure, shortened: as §1
# [4] = system: rice; assay: Test B flooded paddy test; assay type: in vivo, Oryza sativa; details: Oryza sativa; Flood, 250 g ai/ha; 0 to 100 scale where 0 is no effect and 100 is complete control; read-out: Plant response rating, Rice
# Procedure, shortened: (§2)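 2-leaf stage plants; pots flooded to 3 cm, compound added to paddy water, depth maintained. Greenhouse 13–15 d. Visual rating vs untreated controls, 0 (no effect) to 100 (complete control); dash = no result.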
# [5] = system: sedge, umbrella; assay: Test B flooded paddy test; assay type: in vivo, Cyperus difformis; details: Cyperus difformis, Flood, 250 g ai/ha; 0 to 100 scale where 0 is no effect and 100 is complete control; read-out: Plant response rating, Sedge, Umbrella
# Procedure, shortened: as §2
# [6] = system: barnyardgrass; assay: Test B flooded paddy test; assay type: in vivo, Echinochloa crus-galli; details: Echinochloa crus-galli; Flood, 250 g ai/ha; 0 to 100 scale where 0 is no effect and 100 is complete control; read-out: Plant response rating, Barnyardgrass
# Procedure, shortened: as §2
# [7] = system: large (Lg) crabgrass; assay: Test C postemergence; assay type: in vivo, Digitaria sanguinalis; details: Digitaria sanguinalis, post-emergence
# Procedure, shortened: (§3)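 Visual injury score versus untreated controls, 0 = no effect, 100 = complete control, taken 13 to 15 days after treatment in the greenhouse. Pre-emergence pots held loam/sand; post-emergence plants grew in sphagnum peat/vermiculite mix and were sprayed at the 1- to 4-leaf stage.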
# [8] = system: giant foxtail; assay: Test C postemergence; assay type: in vivo, Setaria faberii; details: Setaria faberi, post-emergence
# Procedure, shortened: as §3
# [9] = system: lambsquarters; assay: Test C postemergence; assay type: in vivo, Chenopodium album
# Procedure, shortened: as §3
# [10] = system: morningglory; assay: Test C postemergence; assay type: in vivo, Ipomoea coccinea
# Procedure, shortened: as §3
# [11] = system: yellow nutsedge; assay: Test C postemergence; assay type: in vivo, Cyperus esculentus
# Procedure, shortened: as §3
# [12] = system: barnyardgrass; assay: Test C postemergence; assay type: in vivo, Echinochloa crus-galli; details: Echinochloa crus-galli, post-emergence
# Procedure, shortened: as §3
# [13] = system: wild oat; assay: Test C postemergence; assay type: in vivo, Avena fatua
# Procedure, shortened: as §3
# [14] = system: chickweed; assay: Test C postemergence; assay type: in vivo, Stellaria media; details: Stellaria media, post-emergence
# Procedure, shortened: as §3
# [15] = 31 g ai/ha, postemergence, visual rating, scale 0 to 100 (0 no effect, 100 complete control), 13 to 15 days
compound,measurement,setting,value
"FC(F)c1cn(-c2ccccc2Oc2ncc(Cl)cn2)nn1 [Compound 147, 5-chloro-2-[2-[4-(difluoromethyl)-1H-1,2,3-triazol-1-yl]phenoxy]pyrimidine]",pest or weed control at 125 g/ha,"[1]; 125 g ai/ha, read-out: Plant response rating, Barnyardgrass",100%
same,pest or weed control at 500 g/ha,"[1]; 500 g ai/ha, read-out: Barnyardgrass plant response rating",100%
same,pest or weed control at 125 g/ha,"[2]; 125 g ai/ha, read-out: Barnyardgrass plant response rating",90%
same,pest or weed control at 500 g/ha,"[2]; 500 g ai/ha, read-out: Plant response rating, Barnyardgrass",90%
same,pest or weed control at 500 g/ha,"[3]; 500 g ai/ha, read-out: Plant response rating, Pigweed",100%
same,pest or weed control at 125 g/ha,"[3]; 240 h, 125 g ai/ha, read-out: Pigweed plant response rating",100%
same,plant injury at 250 g/ha,[4],35%
same,pest or weed control at 250 g/ha,[5],75%
same,pest or weed control at 250 g/ha,[6],35%
same,pest or weed control at 16 g/ha,"[7]; 16 g ai/ha, postemergence, 0 is no effect, 100 is complete control, read-out: Plant response rating (0 to 100), Crabgrass, Large",5%
same,pest or weed control at 31 g/ha,"[7]; 31 g ai/ha, postemergence, visual rating, scale 0 to 100 (0 no effect, 100 complete control), 13 to 15 days, read-out: Crabgrass, Large plant response rating",5%
same,pest or weed control at 125 g/ha,"[7]; 125 g ai/ha, postemergence, visual rating, scale 0 to 100 (0 no effect, 100 complete control), read-out: Plant response rating, Crabgrass, Large",10%
same,pest or weed control at 62 g/ha,"[7]; Postemergence, 62 g ai/ha, scale 0 to 100 (0 no effect, 100 complete control), read-out: Plant response rating, Crabgrass, Large",10%
same,pest or weed control at 16 g/ha,"[8]; 16 g ai/ha, postemergence, 0 is no effect, 100 is complete control, read-out: Plant response rating (0 to 100), Foxtail, Giant",0%
same,pest or weed control at 31 g/ha,"[8]; 31 g ai/ha, postemergence, visual rating, scale 0 to 100 (0 no effect, 100 complete control), 13 to 15 days, read-out: Foxtail, Giant plant response rating",0%
same,pest or weed control at 125 g/ha,"[8]; 125 g ai/ha, postemergence, visual rating, scale 0 to 100 (0 no effect, 100 complete control), read-out: Plant response rating, Foxtail, Giant",50%
same,pest or weed control at 62 g/ha,"[8]; Postemergence, 62 g ai/ha, scale 0 to 100 (0 no effect, 100 complete control), read-out: Plant response rating, Foxtail, Giant",20%
same,Lambsquarters plant response rating,[9]; [15],75
same,pest or weed control at 16 g/ha,"[9]; Chenopodium album, post-emergence, 16 g ai/ha, postemergence, 0 is no effect, 100 is complete control, read-out: Plant response rating (0 to 100), Lambsquarters",60%
same,pest or weed control at 125 g/ha,"[9]; Chenopodium album, post-emergence, 125 g ai/ha, postemergence, visual rating, scale 0 to 100 (0 no effect, 100 complete control), read-out: Plant response rating, Lambsquarters",98%
same,pest or weed control at 62 g/ha,"[9]; Chenopodium album, post-emergence, Postemergence, 62 g ai/ha, scale 0 to 100 (0 no effect, 100 complete control), read-out: Plant response rating, Lambsquarters",90%
same,Morningglory plant response rating,[10]; [15],70
same,pest or weed control at 16 g/ha,"[10]; Ipomoea, post-emergence, 16 g ai/ha, postemergence, 0 is no effect, 100 is complete control, read-out: Plant response rating (0 to 100), Morningglory",70%
same,pest or weed control at 125 g/ha,"[10]; Ipomoea, post-emergence, 125 g ai/ha, postemergence, visual rating, scale 0 to 100 (0 no effect, 100 complete control), read-out: Plant response rating, Morningglory",80%
same,pest or weed control at 62 g/ha,"[10]; Ipomoea, post-emergence, Postemergence, 62 g ai/ha, scale 0 to 100 (0 no effect, 100 complete control), read-out: Plant response rating, Morningglory",75%
same,"Nutsedge, Yellow plant response rating",[11]; [15],0
same,pest or weed control at 16 g/ha,"[11]; Cyperus, post-emergence, 16 g ai/ha, postemergence, 0 is no effect, 100 is complete control, read-out: Plant response rating (0 to 100), Nutsedge, Yellow",0%
same,pest or weed control at 125 g/ha,"[11]; Cyperus, post-emergence, 125 g ai/ha, postemergence, visual rating, scale 0 to 100 (0 no effect, 100 complete control), read-out: Plant response rating, Nutsedge, Yellow",5%
same,pest or weed control at 62 g/ha,"[11]; Cyperus, post-emergence, Postemergence, 62 g ai/ha, scale 0 to 100 (0 no effect, 100 complete control), read-out: Plant response rating, Nutsedge, Yellow",0%
same,pest or weed control at 16 g/ha,"[12]; 16 g ai/ha, postemergence, 0 is no effect, 100 is complete control, read-out: Plant response rating (0 to 100), Barnyardgrass",0%
same,pest or weed control at 31 g/ha,"[12]; 31 g ai/ha, postemergence, visual rating, scale 0 to 100 (0 no effect, 100 complete control), 13 to 15 days, read-out: Barnyardgrass plant response rating",5%
same,pest or weed control at 125 g/ha,"[12]; 125 g ai/ha, postemergence, visual rating, scale 0 to 100 (0 no effect, 100 complete control), read-out: Plant response rating, Barnyardgrass",10%
same,pest or weed control at 62 g/ha,"[12]; Postemergence, 62 g ai/ha, scale 0 to 100 (0 no effect, 100 complete control), read-out: Plant response rating, Barnyardgrass",5%
same,"Oat, Wild plant response rating",[13]; [15],0
same,pest or weed control at 16 g/ha,"[13]; Avena fatua, post-emergence, 16 g ai/ha, postemergence, 0 is no effect, 100 is complete control, read-out: Plant response rating (0 to 100), Oat, Wild",0%
same,pest or weed control at 125 g/ha,"[13]; Avena fatua, post-emergence, 125 g ai/ha, postemergence, visual rating, scale 0 to 100 (0 no effect, 100 complete control), read-out: Plant response rating, Oat, Wild",5%
same,pest or weed control at 62 g/ha,"[13]; Avena fatua, post-emergence, Postemergence, 62 g ai/ha, scale 0 to 100 (0 no effect, 100 complete control), read-out: Plant response rating, Oat, Wild",0%
same,pest or weed control at 16 g/ha,"[14]; 16 g ai/ha, postemergence, 0 is no effect, 100 is complete control, read-out: Plant response rating (0 to 100), Chickweed",15%
same,pest or weed control at 31 g/ha,"[14]; 31 g ai/ha, postemergence, visual rating, scale 0 to 100 (0 no effect, 100 complete control), 13 to 15 days, read-out: Chickweed plant response rating",70%
same,pest or weed control at 125 g/ha,"[14]; 125 g ai/ha, postemergence, visual rating, scale 0 to 100 (0 no effect, 100 complete control), read-out: Plant response rating, Chickweed",90%
same,pest or weed control at 62 g/ha,"[14]; Postemergence, 62 g ai/ha, scale 0 to 100 (0 no effect, 100 complete control), read-out: Plant response rating, Chickweed",75%
